Results from PubChem BioAssay (NCI).
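Where inhibition never reached the appropriate level, the endpoint shown equals the highest concentration tested. Otherwise, values were interpolated linearly from a five-concentration, 48-hour dose response in 96-well plates. TGI: total growth inhibition.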

Legend:
Assay in all cases: NCI anticancer screen, dose series, 48 h
[1] = test system: IGROV1 ovarian
[2] = test system: M14 melanoma
[3] = test system: HCT-116 colon
[4] = test system: SF-295 CNS
[5] = test system: U251 CNS
[6] = test system: MOLT-4 leukemia
[7] = test system: KM12 colon
[8] = test system: K-562 leukemia
[9] = test system: OVCAR-4 ovarian
[10] = test system: SF-539 CNS
[11] = test system: UACC-62 melanoma
[12] = test system: NCI-H23 lung
[13] = test system: SF-268 CNS
[14] = test system: UO-31 renal
[15] = test system: UACC-257 melanoma
[16] = test system: NCI-H460 lung
[17] = test system: COLO 205 colon
[18] = test system: SK-MEL-5 melanoma
[19] = test system: OVCAR-5 ovarian
[20] = test system: OVCAR-3 ovarian
[21] = test system: M19-MEL melanoma
[22] = test system: SK-OV-3 ovarian
[23] = test system: SW-620 colon
[24] = test system: SNB-19 CNS
[25] = test system: TK-10 renal
[26] = test system: SK-MEL-28 melanoma
[27] = test system: HOP-62 NSCLC
[28] = test system: OVCAR-8 ovarian
[29] = test system: NCI-H522 lung
[30] = test system: SR leukemia
[31] = test system: SNB-75 CNS
[32] = test system: SK-MEL-2 melanoma
[33] = test system: CCRF-CEM leukemia
[34] = test system: DMS 114 small cell lung
[35] = test system: SN12C renal
[36] = test system: A549 NSCLC
[37] = test system: RXF 393 renal
[38] = test system: KM20L2 colon
[39] = test system: LXFL 529 NSCLC
[40] = test system: EKVX NSCLC
[41] = test system: XF 498 CNS
[42] = test system: HOP-92 NSCLC
[43] = test system: RPMI-8226 leukemia
[44] = test system: HL-60(TB) leukemia
[45] = test system: HT29 colon
[46] = test system: HOP-18 NSCLC
[47] = test system: ACHN renal
[48] = test system: 786-0 renal
[49] = test system: DLD-1 colon
[50] = test system: LOX IMVI melanoma
[51] = test system: SNB-78 CNS
[52] = test system: DMS 273 small cell lung
[53] = test system: CAKI-1 renal
[54] = test system: HCT-15 colon
[55] = test system: NCI-H226 lung
[56] = test system: MALME-3M melanoma
[57] = test system: HCC-2998 colon
[58] = test system: A498 renal

Measured: TGI

COc1ccccc1N1C(Cl)C(=O)C1c1c[nH]c2ccccc12 (stereo not drawn)
> 100 µM: [1] | [2] | [3] | [4] | [5] | [6] | [7] | [8] | [9] | [10] | [11] | [12] | [13] | [14] | [15] | [16] | [17] | [18] | [19] | [20] | [21] | [22] | [23] | [24] | [25] | [26] | [27] | [28] | [29] | [30] | [31] | [32] | [33] | [34] | [35] | [36] | [37] | [38] | [39] | [40] | [41] | [42] | [43] | [44] | [45]

CN(C(=O)c1ccc(Cl)cc1)C(=S)N1CCN(c2ccccn2)CC1
> 100 µM: [1] | [2] | [46] | [3] | [47] | [48] | [4] | [49] | [5] | [6] | [7] | [8] | [9] | [10] | [11] | [12] | [13] | [14] | [15] | [16] | [17] | [50] | [18] | [19] | [20] | [21] | [22] | [23] | [24] | [51] | [25] | [26] | [52] | [27] | [28] | [29] | [30] | [31] | [32] | [33] | [34] | [35] | [53] | [36] | [37] | [38] | [39] | [42] | [43] | [44] | [54] | [55] | [45] | [56]

Nc1ccn(CCO)c(=O)n1
> 100 µM: [1] | [2] | [46] | [3] | [47] | [48] | [4] | [49] | [5] | [7] | [8] | [9] | [10] | [11] | [13] | [14] | [15] | [16] | [17] | [50] | [18] | [19] | [20] | [21] | [22] | [23] | [51] | [25] | [26] | [52] | [27] | [28] | [29] | [30] | [57] | [31] | [32] | [33] | [34] | [35] | [53] | [36] | [37] | [38] | [39] | [40] | [42] | [43] | [44] | [54] | [58] | [55] | [45] | [56]

O=c1c2cc(Br)ccc2nc(-c2ccccc2Cl)n1NCC1(O)OCC(O)C(O)C1O (stereo not drawn)
> 100 µM: [2] | [3] | [47] | [48] | [4] | [5] | [6] | [7] | [8] | [9] | [11] | [12] | [13] | [14] | [15] | [16] | [17] | [50] | [18] | [19] | [20] | [21] | [22] | [23] | [24] | [51] | [26] | [52] | [27] | [28] | [29] | [30] | [31] | [32] | [33] | [34] | [35] | [53] | [36] | [37] | [38] | [39] | [40] | [43] | [44] | [54] | [58] | [55] | [45] | [56]
